From patent US11680086B2, “Lipopeptide for potently inhibiting HIV, derivative thereof, pharmaceutical composition thereof and use thereof” (Institute of Pathogen Biology, Chinese Academy of Medical …, priority 2017, dated 2023)
Peptide text beside a SMILES is read from it. * marks the point of attachment. X1 = Cc1c(C)c2c(c(C)c1OC(=O)CCC(=O)*)CCC(C)(CCCC(C)CCCC(C)CCCC(C)C)O2; Stearoyl = CCCCCCCCCCCCCCCCCC(=O)*; Palmitoyl = CCCCCCCCCCCCCCCC(=O)*

Tests used:
[1] = system: HIV-1 strain NL4-3 pseudovirus (D36G mutant); assay type: cell-based
Experimental: (§1) The supernatant was discarded from the wells. […] Inhibition rate (%) and IC50 value were calculated.

HIV-1 strain JRCSF = assay type: cell-based
Experimental: Inhibition rate (%) and IC50 value were calculated.

[2] = system: NL4-3 pseudovirus carrying T-20 resistance mutation site of NHR; assay: inhibition of T-20 resistant strains; assay type: cell-based, HIV-1; conditions: strains with single or double mutations
[3] = system: SIV pseudoviruses SIVpbj and SIV239; assay: inhibition of SIV pseudoviruses; assay type: cell-based
Experimental: as §1
In order to further reflect the antiviral advantages of the potent lipopeptides of the present invention, their inhibitory activity against HIV-2 and SIV was determined in the example. The methods of antiviral activity assays used were described in the literatures published by the present inventors (see the References 13 and 30 listed in the Background Art). The molecular cloning plasmid pROD of the HIV-2 strain ROD (HIV-2ROD) was kindly provided by Professor Nuno Taveira from the University of Lisbon, Portugal, and the plasmids expressing the SIV strain SIVpbj (SIVPBJ) and SIV239 envelope proteins (pSIVpbj-Env and pSIV239, respectively) were kindly provided by Professor Xu Jianqing from the Fudan University. The preparation of the infectious ROD was the same as that of the infectious JRCSF in the above section 2.1, and the pseudoviruses SIVpbj and SIV239 were prepared by a method same as that described in the above Examples 2 and 3.

[4] = system: 35 HIV-1 pseudoviruses (subtypes A, B, B', C, G, A/C, A/E, B/C); conditions: for IC50: read-out: average IC50 for inhibition of various types of HIV-1 pseudoviruses, average over 35 pseudoviruses; for inhibitory activity against different subtypes of HIV-1 as folds of T-20: relative to T-20, from average IC50
From the text: HIV-1 pseudovirus-mediated cell entry inhibition assay: basic steps included: (1) Preparation of HIV-1 pseudovirus: the 293T cells were co-transfected with a plasmid expressing the envelope protein (Env) of HIV-1 strain NL4-3 (i.e., a recombinant expression plasmid obtained by inserting the gene encoding the envelope protein (ENV) of the D36G mutant of the HIV-1 strain NL4-3 in the Table 2 of the Reference 14 listed in the Background Art into the vector pcDNA3.1(−)) and the HIV-1 backbone plasmid pSG3Δenv (provided by the AIDS Reagent Program of National Institutes of Health (NIH), catalog number: 11051) by using a cell transfection reagent, incubated in a cell incubator of 37° C. and 5% CO2 for 6 hours, and then the medium was changed, and the cells were further incubated for 48 hours. The cell culture supernatant containing pseudovirus particles was pipetted and filtered with a 0.45 μm filter to collect the supernatant, then 20% fetal bovine serum (FBS) was added thereto, the final solution was transferred to a polypropylene tube, and stored at −80° C. for ready for use or directly subjected to virus titration. (2) Titration of HIV-1 pseudovirus: the viruses were diluted by 5 folds in a 96-well plate, and 4 replicate wells with 8 gradients were set to a final volume of 100 microliters. The TZM-b1 cells were trypsinized and counted, and the cells were diluted to 1×10^5 cells/ml with DMEM complete medium; 100 μl of cells dilution (containing 15 μg/ml DEAE-dextran) per well were added and cultured at 37° C. and 5% CO2 for 48 hours. The 96-well plate was then taken from the cell culture incubator. The supernatant was discarded from the wells. To each well, 30 μl of a cell lysate was added, and after 10 minutes, 100 μl of a luciferase detection reagent was added. 100 μl of liquid was pipetted from each well and added to a corresponding 96-well white plate, and the luminescence values were read by a microplate photometer. The virus titer was calculated by the Reed-Muench method. (3) Antiviral activity assay: the test substance was dissolved in DMSO and diluted with a cell culture solution by 3 folds, and placed in a 96-well plate at a final volume of […]. 50 μl of a DMEM medium was used in place of the test substance as a negative control. To each well, 100 μl of TZM-b1 target cells solution (containing 15 μg/ml DEAE-dextran) at a concentration of 1×10^5 cells/ml was added, and then 50 μl (corresponding to 100 TCID50 per well) of the HIV-1 pseudovirus obtained above was added. After incubation at 37° C. and 5% CO2 for 48 hours, the relative light units (RLU) of each well were determined by using a luciferase detection reagent (Promega). Inhibition rate (%) and IC50 value were calculated.
Among them, the A, B and C subtypes were the main viruses causing AIDS epidemic in the world, while B/C and A/E recombinant viruses were the main viruses in China. […] Among the Env expression plasmids used for the preparation of pseudoviral, except that the Env expression plasmids used for preparation of PVO, Du156 and CAP 210.2.00.E8 were obtained from the AIDS Reagent Program of NIH in the United states, other plasmids were preserved by the laboratory of Prof. He Yuxian, Institute of Pathogen Biology, Chinese Academy of Medical Sciences, please see the References 13, 14 and 18 listed in the Background Art and articles of Chong et al. (Chong H, Yao X, Zhang C, Cai L, Cui S, Wang Y, He Y. Biophysical property and broad anti-HIV activity of Albuvirtide, a 3-maleimimidoproprotionic acid-modified peptide fusion inhibitor. PLoS One, 2012; 7 (3): e 32599). The preparation of the pseudovirus and the antiviral assay were the same as those in Example 2.1 of Example 2 (HIV-1 pseudovirus-mediated cell entry inhibition assay).

[5] = system: HIV-1 strain NL4-3 (NL4-3D36G); assay: antiviral activity in serum of macaque after subcutaneous injection; assay type: in vivo, macaques (rhesus monkeys); conditions: 3 mg/kg subcutaneous
Experimental: The specific method was as follows: 6 experimental macaques (rhesus monkeys) were selected, half male and half female, aged 3-4 years old, weighing 3.4-4.7 kg. […] The serum was separated according to a conventional method. The injection interval of each inhibitor was more than 2 weeks to ensure that there was no residue of the previous analyte. The serum activity against the HIV-1 strain NL4-3 (NL4-3D36G) was measured according to the experimental method of the pseudovirus-based assay in the above examples. The serum was diluted by 3 folds. […] Therefore, the lipopeptides of the present invention were not only potent but also were long-lasting effective.

[6] = 72 hours (3 days) after injection

Row | Structure (SMILES) | inhibitory activity as folds of that of T-20 ([1]; NL4-3 pseudovirus entry, relative to T-20) [folds] | inhibitory activity further improved, folds ([1]; NL4-3 pseudovirus, relative to LP-50) | inhibitory activity as folds of that of T-20 (HIV-1 strain JRCSF; JRCSF replication, relative to T-20) [folds] | inhibitory activity further improved, folds (HIV-1 strain JRCSF; replicative JRCSF virus, relative to LP-50) [folds] | inhibitory activity against T-20 resistant strains (in words) [2] | inhibitory activity against SIV (in words) [3] | IC50 [4] [nM] | inhibitory activity against different subtypes of HIV-1 as folds of T-20 [4] [folds] | maximum serum dilution multiple for inhibiting 50% of NL4-3 infectivity ([5]; 4 hour after injection) [folds] | maximum serum dilution multiple for inhibiting 50% of NL4-3 infectivity ([5]; 6 hour after injection) [folds] | maximum serum dilution multiple for inhibiting 50% of NL4-3 infectivity [5, 6] [folds]
1 | CCCCCCCCCCCCCCCC(=O)NCCCC[C@H](NC(=O)[C@H](CCC(=O)O)NC(=O)[C@H](CC(C)C)NC(=O)[C@H](CCCCN)NC(=O)[C@H](CCCCN)NC(=O)[C@H](CC(C)C)NC(=O)[C@H](CCC(=O)O)NC(=O)[C@H](CCC(=O)O)NC(=O)[C@H](CCC(=O)O)NC(=O)[C@H](CC(N)=O)NC(=O)[C@H](CCCCN)NC(=O)[C@H](CCCCN)NC(=O)[C@H](CCC(N)=O)NC(=O)[C@H](CCC(N)=O)NC(=O)[C@H](CCC(=O)O)NC(=O)[C@H](CCC(=O)O)NC(=O)[C@H](C)NC(=O)[C@H](CCCCN)NC(=O)[C@H](CCCCN)NC(=O)[C@H](CC(C)C)NC(=O)[C@H](CC(C)C)NC(=O)[C@H](CCC(=O)O)NC(=O)[C@H](CCC(=O)O)NC(=O)[C@@H](NC(=O)[C@H](CCCCN)NC(=O)[C@H](CCC(N)=O)NC(=O)[C@H](CCC(=O)O)NC(=O)[C@H](Cc1c[nH]c2ccccc12)NC(C)=O)[C@@H](C)CC)C(N)=O [LP-52] (Ac-WEQKIEELLKKAEEQQKKNEEELKKLEK(Palmitoyl)-NH2) | 2353 | about 2 folds | 1038 | ~5 | thousands to tens of thousands of times better than that of the LP-40 | extremely potent inhibitory activity | 0.016 | 2588 | 700802 | 669112 | 182
2 | CC[C@H](C)[C@H](NC(=O)[C@H](CCCCN)NC(=O)[C@H](CCC(N)=O)NC(=O)[C@H](CCC(=O)O)NC(=O)[C@H](Cc1c[nH]c2ccccc12)NC(C)=O)C(=O)N[C@@H](CCC(=O)O)C(=O)N[C@@H](CCC(=O)O)C(=O)N[C@@H](CC(C)C)C(=O)N[C@@H](CC(C)C)C(=O)N[C@@H](CCCCN)C(=O)N[C@@H](CCCCN)C(=O)N[C@@H](C)C(=O)N[C@@H](CCC(=O)O)C(=O)N[C@@H](CCC(=O)O)C(=O)N[C@@H](CCC(N)=O)C(=O)N[C@@H](CCC(N)=O)C(=O)N[C@@H](CCCCN)C(=O)N[C@@H](CCCCN)C(=O)N[C@@H](CC(N)=O)C(=O)N[C@@H](CCC(=O)O)C(=O)N[C@@H](CCC(=O)O)C(=O)N[C@@H](CCC(=O)O)C(=O)N[C@@H](CC(C)C)C(=O)N[C@@H](CCCCN)C(=O)N[C@@H](CCCCN)C(=O)N[C@@H](CC(C)C)C(=O)N[C@@H](CCC(=O)O)C(=O)N[C@@H](CCCCNC(=O)CCC(=O)Oc1c(C)c(C)c2c(c1C)CCC(C)(CCCC(C)CCCC(C)CCCC(C)C)O2)C(N)=O (stereo partly shown) [LP-85] (Ac-WEQKIEELLKKAEEQQKKNEEELKKLEK(X1)-NH2) |  |  |  |  | thousands to tens of thousands of times better than that of the LP-40 | extremely potent inhibitory activity |  | 941 |  |  | 
3 | CCCCCCCCCCCCCCCCCC(=O)NCCCC[C@H](NC(=O)[C@H](CCC(=O)O)NC(=O)[C@H](CC(C)C)NC(=O)[C@H](CCCCN)NC(=O)[C@H](CCCCN)NC(=O)[C@H](CC(C)C)NC(=O)[C@H](CCC(=O)O)NC(=O)[C@H](CCC(=O)O)NC(=O)[C@H](CCC(=O)O)NC(=O)[C@H](CC(N)=O)NC(=O)[C@H](CCCCN)NC(=O)[C@H](CCCCN)NC(=O)[C@H](CCC(N)=O)NC(=O)[C@H](CCC(N)=O)NC(=O)[C@H](CCC(=O)O)NC(=O)[C@H](CCC(=O)O)NC(=O)[C@H](C)NC(=O)[C@H](CCCCN)NC(=O)[C@H](CCCCN)NC(=O)[C@H](CC(C)C)NC(=O)[C@H](CC(C)C)NC(=O)[C@H](CCC(=O)O)NC(=O)[C@H](CCC(=O)O)NC(=O)[C@@H](NC(C)=O)[C@@H](C)CC)C(N)=O [LP-90] (Ac-IEELLKKAEEQQKKNEEELKKLEK(Stearoyl)-NH2) |  |  |  |  | much lower active against T-20 resistant mutant strains than the LP-52 and LP-80 | extremely potent inhibitory activity | 0.014 | 2958 |  |  | 
4 | CCCCCCCCCCCCCCCC(=O)NCCCC[C@H](NC(=O)[C@H](CCC(=O)O)NC(=O)[C@H](CC(C)C)NC(=O)[C@H](CCCCN)NC(=O)[C@H](CCCCN)NC(=O)[C@H](CC(C)C)NC(=O)[C@H](CCC(=O)O)NC(=O)[C@H](CCC(=O)O)NC(=O)[C@H](CCC(=O)O)NC(=O)[C@H](CC(N)=O)NC(=O)[C@H](CCCCN)NC(=O)[C@H](CCCCN)NC(=O)[C@H](CCC(N)=O)NC(=O)[C@H](CCC(N)=O)NC(=O)[C@H](CCC(=O)O)NC(=O)[C@H](CCC(=O)O)NC(=O)[C@H](C)NC(=O)[C@H](CCCCN)NC(=O)[C@H](CCCCN)NC(=O)[C@H](CC(C)C)NC(=O)[C@H](CC(C)C)NC(=O)[C@H](CCC(=O)O)NC(=O)[C@H](CCC(=O)O)NC(=O)[C@@H](NC(=O)[C@H](CC(N)=O)NC(=O)[C@H](C)NC(=O)[C@H](CCC(=O)O)NC(=O)[C@H](CC(C)C)NC(C)=O)[C@@H](C)CC)C(N)=O [LP-51] (Ac-LEANIEELLKKAEEQQKKNEEELKKLEK(Palmitoyl)-NH2) |  |  |  |  | thousands to tens of thousands of times better than that of the LP-40 | extremely potent inhibitory activity | 0.033 | 1255 | 700482 | 584381 | 1122
